Data published in article PMC5433426, “Identification of small molecule inhibitors of the Lin28-mediated blockage of pre-let-7g processing” (Organic & Biomolecular Chemistry, 2016).
Where two headings read alike, the source gives them in different places.

Biological target: T1, Lin28 (Homo sapiens, UniProt Q9H9Z2)
T1 construct: gene LIN28A; recombinant, N-terminal GST tag; multimeric on pre-let-7
T1 sequence (Q9H9Z2 1-209): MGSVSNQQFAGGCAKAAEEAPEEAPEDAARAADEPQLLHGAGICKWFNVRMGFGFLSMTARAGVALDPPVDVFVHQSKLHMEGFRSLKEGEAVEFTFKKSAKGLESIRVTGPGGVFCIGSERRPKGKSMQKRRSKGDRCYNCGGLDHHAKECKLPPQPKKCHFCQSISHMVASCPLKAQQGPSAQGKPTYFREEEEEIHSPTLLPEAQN
Assay: fluorescence polarization displacement of fluorescein-labelled tpre-let-7g RNA
Assay type: binding

Compound | IC50 | IC50 (read-out: IC50)
NC(Cc1cc(O)c(O)cc1O)C(=O)O (racemic) [compound 10, 6-hydroxy-DL-DOPA] | 7.05 ± 0.13 µM | 
Nc1c(S(=O)(=O)O)cc(Nc2ccc(S(=O)(=O)O)c(Nc3nc(Cl)nc(Cl)n3)c2)c2c1C(=O)c1ccccc1C2=O [11b, Reactive Blue 4] |  | 10.75 ± 0.1 µM
O=C(O)C1=CC(=C(c2ccc(O)c(C(=O)O)c2)c2ccc(O)c(C(=O)O)c2)C=CC1=O [compound 4, Aurintricarboxylic acid] |  | 1.18 ± 0.23 µM
O=C(O)c1ccc2nc3c4c(O)ccc(O)c4c(=O)c(Cl)c-3oc2c1 [compound 14, SB/ZW/0065] |  | 4.71 ± 0.16 µM
